Test results published in patent US20110111061A1, “Compositions and Methods for the Treatment of Skeletal Metastatic Lesions and Fractures” (priority 2008, published 2011).

Assay: Adriamycin elution from bone cement in vitro
Format: physicochemical
Details: one or two vials (10 mg adriamycin each) added to a packet of PMMA bone cement (22.5 g powder + 9 ml liquid monomer)
Method: […] […] They were mixed thoroughly to ensure there are no large adriamycin flakes. […] One gram of this composite elutes 340 micrograms of adriamycin within 24 hours in vitro. The prepared bone cement drug powder was then loaded in sterile syringes (2 g/syringe). To prepare the bone cement putty for implantation and in situ polymerization, 1 ml of Confidence™ monomer was added to this powder and mixed thoroughly 5 minutes prior to implantation.

elution of adriamycin from PMMA bone cement without filler: negligible elution
Structure (SMILES): COc1cccc2c1C(=O)c1c(O)c3c(c(O)c1C2=O)C[C@@](O)(C(=O)CO)C[C@@H]3O[C@H]1C[C@H](N)[C@H](O)[C@H](C)O1 [adriamycin]
